Reference: ChEMBL document CHEMBL1148074, “Thalifaberidine, a cytotoxic aporphine-benzylisoquinoline alkaloid from Thalictrum faberi” (J Nat Prod, 1994)
In brackets after ≈: the same amount, converted by molar mass. Activity calls are given as the source filed them. The rule behind the calls is not given here.

Assays:
Plasmodium falciparum [1] = assay: Antimalarial activity against chloroquine-sensitive Plasmodium falciparum D6 infected human erythrocytes after 24 hrs by [3H]hypoxanthine uptake; type: functional; conditions: read-out: ED50 (the source's name)
Plasmodium falciparum [2] = assay: Antimalarial activity against chloroquine-resistant Plasmodium falciparum W2 infected human erythrocytes after 24 hrs by [3H]hypoxanthine uptake; type: functional; conditions: read-out: ED50 (the source's name)
[3] = Selectivity index, ratio of ED50 for human KB cells to ED50 for chloroquine-sensitive Plasmodium falciparum D6; type: toxicity, cell-based; conditions: read-out: Selectivity Index
[4] = Selectivity index, ratio of ED50 for human KB cells to ED50 for chloroquine-resistant Plasmodium falciparum W2; type: toxicity, cell-based; conditions: read-out: Selectivity Index
[5] = Cytotoxicity against human BCA1 cells after 3 days by SRB assay; type: functional; conditions: BCA1, 72 h, read-out: ED50 (the source's name)
HT-1080 = assay: Cytotoxicity against human HT1080 cells after 3 days by SRB assay; type: functional; conditions: HT-1080, 72 h, read-out: ED50 (the source's name)
Lu1 = assay: Cytotoxicity against human Lu1 cells after 3 days by SRB assay; type: functional; conditions: Lu1, 72 h, read-out: ED50 (the source's name)
Col2 = assay: Cytotoxicity against human Col2 cells after 3 days by SRB assay; type: functional; conditions: Col2, 72 h, read-out: ED50 (the source's name)
KB = assay: Cytotoxicity against human KB cells after 3 days by SRB assay; type: functional; conditions: 72 h, read-out: ED50 (the source's name)
[6] = Cytotoxicity against human KBVIN cells in presence of 1 ug/ml vinblastine after 3 days by SRB assay; type: functional; conditions: 72 h, read-out: ED50 (the source's name)
[7] = Cytotoxicity against human KBVIN cells after 3 days by SRB assay; type: functional; conditions: 72 h, read-out: ED50 (the source's name)
P388 = assay: Cytotoxicity against mouse P388 cells after 3 days by SRB assay; type: functional; conditions: P388, 72 h, read-out: ED50 (the source's name)
A-431 = assay: Cytotoxicity against human A431 cells after 3 days by SRB assay; type: functional; conditions: A-431, 72 h, read-out: ED50 (the source's name)
LNCaP = assay: Cytotoxicity against human LNCAP cells after 3 days by SRB assay; type: functional; conditions: 72 h, read-out: ED50 (the source's name)
ZR-75-1 = assay: Cytotoxicity against human ZR-75-1 cells after 3 days by SRB assay; type: functional; conditions: ZR-75-1, 72 h, read-out: ED50 (the source's name)
[8] = Cytotoxicity against human U373 cells after 3 days by SRB assay; type: functional, U-373MG ATCC; conditions: U373 MG, 72 h, read-out: ED50 (the source's name)
[9] = target: Human immunodeficiency virus type 1 reverse transcriptase (Human immunodeficiency virus 1) (UniProt Q72547); assay: Inhibition of HIV1 reverse transcriptase

Row | Compound | EC50 (Plasmodium falciparum [1]) | EC50 (Plasmodium falciparum [2]) | selectivity ratio [3] | selectivity ratio [4] | EC50 [5] | EC50 (HT-1080) | EC50 (Lu1) | EC50 (Col2) | EC50 (KB) | EC50 [6] | EC50 [7] | EC50 (P388) | EC50 (A-431) | EC50 (LNCaP) | EC50 (ZR-75-1) | EC50 [8] | Activity [9]
1 | C[C@@H]1CC[C@H]2[C@@H](C)C(=O)O[C@@H]3O[C@@]4(C)CC[C@@H]1[C@]32OO4 [ARTEMISININ] | 0.0011 mg/L (≈ 0.0039 µM) | 0.0004 mg/L (≈ 0.00142 µM) | > 1820 | > 50000 |  |  |  |  |  |  |  |  |  |  |  |  | 
2 | CCN(CC)CCCC(C)Nc1ccnc2cc(Cl)ccc12 (centres undefined) [CHLOROQUINE] | 0.0035 mg/L (≈ 0.0109 µM) |  |  |  |  |  |  |  |  |  |  |  |  |  |  |  | 
3 | OC(c1cc(C(F)(F)F)nc2c(C(F)(F)F)cccc12)C1CCCCN1 (centres undefined) [MEFLOQUINE] | 0.0089 mg/L (≈ 0.0235 µM) | 0.0019 mg/L (≈ 0.00502 µM) | 393 | 1840 |  |  |  |  |  |  |  |  |  |  |  |  | 
4 | C=C[C@H]1CN2CC[C@H]1C[C@H]2[C@H](O)c1ccnc2ccc(OC)cc12 [QUININE] | 0.0208 mg/L (≈ 0.0641 µM) | 0.0592 mg/L (≈ 0.182 µM) | > 960 | > 340 |  |  |  |  |  |  |  |  |  |  |  |  | 
5 | COc1cc2c(cc1O)CCN(C)[C@H]2Cc1ccc(Oc2c(O)c(OC)cc3c2C[C@H]2c4c(c(OC)c(OC)c(OC)c4-3)CCN2C)cc1 [THALIFABERIDINE] | 0.88 mg/L (≈ 1.32 µM) | 0.122 mg/L (≈ 0.182 µM) | 6.5 | 47 | 3.9 mg/L (≈ 5.83 µM) | 3.1 mg/L (≈ 4.64 µM) | 5.4 mg/L (≈ 8.07 µM) | 3.2 mg/L (≈ 4.78 µM) | 5.7 mg/L (≈ 8.52 µM) | 17.7 mg/L | 7.8 mg/L (≈ 11.7 µM) | 0.6 mg/L (≈ 0.897 µM) | 6.7 mg/L (≈ 10 µM) | 3.7 mg/L (≈ 5.53 µM) | 1.5 mg/L (≈ 2.24 µM) | 1.5 mg/L (≈ 2.24 µM) | inactive
6 | COc1cc2c(cc1OC)[C@H](Cc1ccc(Oc3c4c(cc(OC)c3OC)-c3c(OC)c(OC)c(OC)c5c3[C@H](C4)N(C)CC5)cc1)N(C)CC2 [THALIFABERINE] | 5.09 mg/L (≈ 7.3 µM) | 0.441 mg/L (≈ 0.633 µM) | 3 | 35 | 5.4 mg/L (≈ 7.75 µM) | 2.6 mg/L (≈ 3.73 µM) | 16.3 mg/L (≈ 23.4 µM) | 1.6 mg/L (≈ 2.3 µM) | 15.5 mg/L (≈ 22.2 µM) | 4.6 mg/L | 1.2 mg/L (≈ 1.72 µM) | 1.3 mg/L (≈ 1.87 µM) | 4.9 mg/L (≈ 7.03 µM) | 5.7 mg/L (≈ 8.18 µM) | 3.7 mg/L (≈ 5.31 µM) | 4.1 mg/L (≈ 5.88 µM) | inactive
7 | COc1cc2c(c(O)c1OC)CCN(C)[C@H]2Cc1ccc(Oc2c3c(cc(OC)c2OC)-c2c(OC)c(OC)c(O)c4c2[C@H](C3)N(C)CC4)cc1 [THALIFASINE] | 0.238 mg/L (≈ 0.341 µM) | 0.0493 mg/L (≈ 0.0705 µM) | 19 | 93 | 2.4 mg/L (≈ 3.43 µM) | 1.3 mg/L (≈ 1.86 µM) | 2 mg/L (≈ 2.86 µM) | 2.1 mg/L (≈ 3.01 µM) | 4.6 mg/L (≈ 6.58 µM) | 5.7 mg/L | 1.6 mg/L (≈ 2.29 µM) | 1.2 mg/L (≈ 1.72 µM) | 8.2 mg/L (≈ 11.7 µM) | 3.3 mg/L (≈ 4.72 µM) | 1.2 mg/L (≈ 1.72 µM) | 2.2 mg/L (≈ 3.15 µM) | inactive
